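Step 1: Grow cells in 96-well plates. Step 2: Expose to compound for 48 hours at 5 concentrations. Step 3: Interpolate endpoints linearly; if unreached, use highest concentration. At the GI50, growth is halved.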 Active and inactive are the calls of the source. Rule as the data show it: active = GI50 up to about 1.1 µM and inactive = higher.
Tests used:
Test in all cases: DTP human tumour cell line panel, 48 h
[1] = tested on: HCT-116
[2] = tested on: LOX IMVI
[3] = tested on: UO-31
[4] = tested on: SK-MEL-2
[5] = tested on: HCT-15
[6] = tested on: MDA-N
[7] = tested on: 786-0
[8] = tested on: HOP-92
[9] = tested on: NCI-H226
[10] = tested on: A549
[11] = tested on: PC-3
[12] = tested on: HL-60
[13] = tested on: SNB-19
[14] = tested on: T47D
[15] = tested on: CAKI-1
[16] = tested on: MOLT-4
[17] = tested on: U-251
[18] = tested on: SR
[19] = tested on: NCI-H460

Measured: GI50

COc1cc(/C=N\N(C)C)cc(/C=N/N(C)C)c1O
88.1 µM: [5]
active: [16] < 0.01 µM
inactive: [1] 29.8 µM | [2] 25.1 µM | [3] 22 µM | [4] 7.89 µM | [6] 25.9 µM | [7] 24.4 µM | [8] 6.14 µM | [9] 15.8 µM | [10] > 100 µM | [11] 16.4 µM | [12] 9.71 µM | [13] 30.6 µM | [14] 1.98 µM | [15] 21.1 µM | [17] 21.1 µM | [18] 12.5 µM | [19] 30.1 µM

CCOC(=O)C1=C(N)N2C(=N[C@H]3CCCC[C@@H]32)N=C1
> 100 µM: [5]
inactive: [1] > 100 µM | [2] > 100 µM | [3] > 100 µM | [4] > 100 µM | [6] > 100 µM | [7] > 100 µM | [8] > 100 µM | [9] 73.6 µM | [10] > 100 µM | [11] > 100 µM | [12] > 100 µM | [13] > 100 µM | [14] > 100 µM | [15] > 100 µM | [16] > 100 µM | [17] > 100 µM | [18] > 100 µM | [19] > 100 µM

CCc1c(C)c(C#N)c(=S)n(C2OC(CO)C(O)C(O)C2O)c1C (stereo not given)
> 100 µM: [5]
inactive: [1] > 100 µM | [2] > 100 µM | [3] > 100 µM | [4] > 100 µM | [6] > 100 µM | [7] > 100 µM | [8] > 100 µM | [9] > 100 µM | [10] > 100 µM | [11] > 100 µM | [12] > 100 µM | [13] > 100 µM | [14] > 100 µM | [16] > 100 µM | [17] > 100 µM | [18] > 100 µM | [19] > 100 µM

CCOC(=O)C1C(=O)CC(C)(O)C(C(=O)OCC)C1c1ccc(O)c(OC)c1 (stereo not given)
> 100 µM: [5]
inactive: [1] > 100 µM | [2] > 100 µM | [3] > 100 µM | [4] > 100 µM | [6] > 100 µM | [7] > 100 µM | [8] > 100 µM | [9] > 100 µM | [10] > 100 µM | [11] > 100 µM | [12] > 100 µM | [13] > 100 µM | [14] > 100 µM | [15] > 100 µM | [16] > 100 µM | [17] > 100 µM | [18] > 100 µM | [19] > 100 µM

CN(C)c1ccc2oc(=O)c3ccccc3c2c1
> 100 µM: [5]
inactive: [1] 40.9 µM | [2] > 100 µM | [4] 33.7 µM | [6] > 100 µM | [7] 30.5 µM | [8] 35.2 µM | [9] 46.7 µM | [10] > 100 µM | [11] > 100 µM | [12] > 100 µM | [13] 23.1 µM | [14] > 100 µM | [15] 28.9 µM | [16] > 100 µM | [17] 25.3 µM | [18] > 100 µM | [19] > 100 µM

N#CN1C2CCC1CC(=O)C2
> 100 µM: [5]
inactive: [1] > 100 µM | [2] > 100 µM | [3] > 100 µM | [4] > 100 µM | [6] > 100 µM | [7] > 100 µM | [8] > 100 µM | [9] > 10 µM | [10] > 100 µM | [11] > 100 µM | [12] > 100 µM | [13] > 100 µM | [14] > 100 µM | [15] > 100 µM | [16] > 100 µM | [17] > 100 µM | [18] > 100 µM | [19] > 100 µM

CC1=C(C)C(=O)O[C@@H]([C@](C)(O)[C@]2(O)CC[C@@]3(O)[C@@H]4C[C@H](O)[C@]5(O)[C@@H](O)C=CC(=O)[C@]5(C)[C@H]4CC[C@]23C)C1
> 100 µM: [5]
inactive: [1] 86.9 µM | [2] 58.5 µM | [3] > 100 µM | [4] > 100 µM | [6] 93.1 µM | [7] > 100 µM | [8] > 100 µM | [9] > 100 µM | [10] > 100 µM | [11] > 100 µM | [12] 18 µM | [13] > 100 µM | [14] > 100 µM | [15] > 100 µM | [16] > 100 µM | [17] 89.9 µM | [18] 31.3 µM | [19] > 100 µM

CCN(CC)CCCNc1nncc2c(C)c3[nH]c4ccc(OC)cc4c3cc12
10.3 µM: [5]
inactive: [3] 3.17 µM | [15] 8.41 µM
active: [1] 0.277 µM | [2] 0.189 µM | [4] 1.02 µM | [6] 0.695 µM | [7] 0.222 µM | [8] 0.369 µM | [9] 0.0557 µM | [10] 0.718 µM | [11] 0.358 µM | [12] 0.91 µM | [13] 0.318 µM | [14] 0.286 µM | [16] 0.0173 µM | [17] 0.304 µM | [18] 0.414 µM | [19] 0.789 µM

Source: ChEMBL document CHEMBL1201862, “PubChem BioAssay data set” (2004)
